Read-outs that look alike come from different tables or passages of the source.
Assays:
RSV-A2-GFP virus = test: microbe, parasite or virus in culture; assay type: cell-based, Human Respiratory Syncytial Virus; settings: Calu-1 cells, RSV-A2-GFP MOI=1.2, 96 hrs, GFP-expressing cells counted
Experimental: To set up the assay, ARF vials were thawed in a 37° C. water bath and a control compound was resuspended in assay media DMEM (Dulbecco's Modified Eagle Medium) containing 2% FBS, 100 U/ml Penicillin-Streptomycin.
GFP sequence was derived from pJTI™ R4 Dest CMV N-EmGFP pA Vector (Invitrogen) and was cloned into the intergenic sequence between wild-type RSV-A2 P and M genes using standard recombineering techniques. Recombinant RSV-A2-GFP was propagated in Hep2 cells (human cells contain HeLa marker chromosomes and were derived via HeLa contamination, ATCC CCL-23) with a Multiplicity of Infection (MOI) of 0.1. Virus was harvested 3 days after infection by collecting all culture material and then freeze-thawing the mixture for 5 minutes. Working virus stocks were generated by thawing frozen viral cultures in 37° C. water bath, which were centrifuged at 218 g for 15 min at 4° C. 1/10 of 10×SPG (Biological Industries 06-3061-01-5A) were added and then mixed. The supernatant was aliquoted, frozen in liquid nitrogen, and then transferred to a −80° C. freezer for storage. Virus titer was determined by automated plaque assay in HEp-2 cells following methods described previously (Wen Z. et al.; 2019).
Calu-1 cells were purchased from ATCC (Cat #HTB-54) and were expanded in growth media (DMEM containing 10% FBS, 100 U/ml Penicillin-Streptomycin). To make ARF, cell culture media was removed and discarded and the cell layer was briefly rinsed with PBS to remove serum. 2.5 mL of TrypLE Express solution were added and cells incubated until dislodged, to which growth media was added and the cells were resuspended by gentle pipetting. Cells were counted for concentration and viability as determined by ViCell. Cells were centrifuged at RT, 300 g for 5 minutes to pellet cells. The supernatant was gently aspirated and the pellet was flicked to loosen cells. Cells were resuspended in an appropriate volume of freezing medium (DMEM containing 10% DMSO, 10% FBS, 100 U/ml Penicillin-Streptomycin) to achieve a concentration of 5×10^6 cells/mL. 1 mL aliquots of the cell suspension were transferred to freezing vials. The vials were put into an upright container in a −80° C. freezer overnight before transferring vials to liquid nitrogen for storage
Assay ready freeze-down (ARF, generation described separately) Calu-1 cells (ATCC HTB-54) were used. Compound plates were prepared by dispensing compounds dissolved in DMSO into the wells of a 384 well Corning® 3985 plate with an ECHO acoustic dispenser and compounds were tested in 10-point serial 3-fold dilution. […] To set up the assay, ARF vial(s) were thawed in a 37° C. water bath and were then resuspended into assay media (DMEM containing 2% FBS, 100 U/ml Penicillin-Streptomycin). Cells were counted using default parameters on ViCell and diluted to 20,000 cells/mL in assay media. RSV-A2-GFP virus was added to cells at 24,000 pfu/ml (MOI=1.2) and mixed by gentle inversion. 10 μL/well of 100% DMSO was dispensed as CellTiter-Glo (CTG) assay Max_E controls wells. The cells were dispensed at 50 μL/well using Bravo with 50 μL filtered tips into compound plates. Plates were covered with MicroClime lids, loaded with 7.5 mL of assay media to minimize evaporation, and were incubated at 37° C. and 5% CO2 for 96 hrs. Following incubation, distinct, GFP-expressing cells were counted using an Acumen imaging system with appropriate settings. A same-well CTG assay was performed by adding 10 μL/well reconstituted CellTiter-Glo reagent (Promega G7573) and plates were read on PerkinElmer Envision according to manufacturer's instructions. Raw data were loaded and analyzed in ActivityBase. Antiviral IC50 and cytotoxicity CC50 values were determined using a 4 parameter logistic fit based on the Levenberg-Marquardt algorithm. Model: 205-4 Parameter Logistic.

hMPV-GFP virus = test: microbe, parasite or virus in culture; assay type: cell-based, Human Metapneumovirus; settings: VERO cells, hMPV-GFP MOI=1.25, 48 hrs, GFP-expressing cells counted
Experimental: GFP expressing rgHMPV #3 p3 was generated in Dr. Buchholz's lab (Biacchesi S. et al., J Virol. 2007 June; 81(11): 6057-6067) and propagated in VERO cells (ATCC Cat #CCL-81) with a Multiplicity of Infection (MOI) of 0.1. Virus was harvested 4 days after infection by collecting cultured material and was freeze-thaw cycled in liquid nitrogen twice. Working virus stocks were generated from thawing frozen samples in 37° C. water bath, which were centrifuged at 218 g for 15 min at 4° C. 1/10 of 10×SPG (Biological Industries 06-3061-01-5A) were added and then mixed. The supernatant was aliquoted, frozen in liquid nitrogen, and then transferred to a −80° C. freezer for storage. Virus titer was determined by performing titration test in 96-well plates and calculate approximate virus titer using GFP event/well data.
Compound plates were prepared by dispensing compounds dissolved in DMSO into wells of a 384 well Corning 3985 polystyrene flat clear bottom optical imaging microplate (202.5 nL/well) using an ECHO acoustic dispenser. Each compound was tested in 10-point serial 3-fold dilution (typical final concentrations: 40,300 nM-2 nM). […] Continuous culture of VERO cells was maintained in complete culture media (OptiMEM supplemented with 2 mM GlutaMAX™ and 100 U/ml Penicillin-Streptomycin). To set up the assay, VERO cells were trypsinized with 0.25% Trypsin-EDTA until cells were dislodged, then cells were re-suspended with 1 mL FBS. Cells were spundown at 300 g for 5 minutes and cells were washed twice with culture media and counted using default parameters on ViCell. Cells were then diluted to 100,000 cells/mL (5,000 cells/50 μL) in complete culture media+TrypLE Select (80 μL/mL). hMPV-GFP virus was added to cells at 125,000 pfu/mL (MOI=1.25) and were mixed by gentle inversion. 10 μL/well of 100% DMSO was dispensed to CellTiter-Glo (CTG) assay Max_E controls wells. Cells were dispensed at 50 μL/well using Bravo and 50 μL filtered tips into compound plates. Plates were covered with MicroClime lids and loaded with 7.5 mL of assay media to minimize evaporation. Plates were lightly shaken for 10 minutes at room temperature and then incubated at 37° C. and 5% CO2 for 48 hrs. Following incubation, distinct GFP-expressing cells were counted using an Acumen imaging system with appropriate settings. A same-well CTG assay was performed by adding 10 μL/well reconstituted CellTiter-Glo reagent (Promega G7573) and plates were read on PerkinElmer Envision according to manufacturer's instructions. Raw data were loaded and analyzed in ActivityBase. Antiviral IC50 and cytotoxicity CC50 values were determined using a 4 parameter logistic fit based on the Levenberg-Marquardt algorithm. Model: 205-4 Parameter Logistic.

[1] = read-out: RSV EC50, Table I Summary of Activities for RSV
[2] = read-out: RSV EC50, Table II Summary of Activities for hMPV
[3] = Table I Summary of Activities for RSV, read-out: RSV EC50
[4] = Table II Summary of Activities for hMPV, read-out: RSV EC50
[5] = human respiratory syncytial virus, Calu-1, 96 h, read-out: RSV EC50, Table I Summary of Activities for RSV
[6] = Vero, 48 h, read-out: RSV EC50, Table II Summary of Activities for hMPV

Row | SMILES | EC50 (RSV-A2-GFP virus; [1]) | EC50 (hMPV-GFP virus; [2]) | also measured
1 | Cn1nc(-c2cscn2)cc1C(=O)N1C[C@@H]2[C@H](C1)[C@H]2Oc1cc(C2(C)CCN2)cc(-c2ccc(F)cc2)n1 (single isomer, unassigned; enantiomer 2) [Example 55B] | < 10 nM | > 100 nM | –
2 | Cn1nc(-c2cscn2)cc1C(=O)N1C[C@@H]2[C@H](C1)[C@H]2Oc1cc(C2(C)CCCN2)cc(-c2ccc(F)cc2)n1 (single isomer, unassigned; enantiomer 2) [Example 56B] | < 10 nM | > 100 nM | –
3 | Cn1nc(-c2cscn2)cc1C(=O)N1C[C@@H]2C(Oc3cc(C(C)(N)CO)cc(-c4ccc(F)cc4)n3)[C@@H]2C1 (single isomer, unassigned; enantiomer 2) [Example 57B] | – | – | EC50 (RSV-A2-GFP virus; [3]): < 10 nM; EC50 (hMPV-GFP virus; [4]): > 100 nM
4 | Cn1nc(-c2ncco2)cc1C(=O)N1C[C@@H]2C(Oc3cc(C(C)(N)CO)cc(-c4ccc(F)cc4)n3)[C@@H]2C1 (single isomer, unassigned; enantiomer 2) [Example 58B] | – | – | EC50 (RSV-A2-GFP virus; [3]): < 10 nM; EC50 (hMPV-GFP virus; [4]): > 100 nM
5 | CC(N)c1cc(O[C@H]2[C@@H]3CN(C(=O)c4cc(-c5cscn5)nn4C)C[C@@H]32)nc(-c2ccc(F)cc2)c1 (single isomer, unassigned; enantiomer 2) [Example 61B] | < 10 nM | > 100 nM | –
6 | CC(N)c1cc(O[C@H]2[C@@H]3CN(C(=O)c4cc(-c5ccon5)nn4C)C[C@@H]32)nc(-c2ccc(F)cc2)c1 (single isomer, unassigned; enantiomer 2) [Example 62B] | < 10 nM | > 100 nM | –
7 | Cn1nc(-c2cscn2)cc1C(=O)N1C[C@@H]2[C@H](C1)[C@H]2Oc1cc(C(C)(C)N)cc(C2CCC(C)(C)CC2O)n1 (single isomer, unassigned; enantiomer 2) [Example 66B] | 10 to 100 nM | > 100 nM | –
8 | Cn1nc(-c2cscn2)cc1C(=O)N1C[C@@H]2[C@H](C1)[C@H]2Oc1cc(C(C)(C)N)cc(C2CCC(C)(C)CC2O)n1 (single isomer, unassigned; enantiomer 3) [Example 66C] | 10 to 100 nM | > 100 nM | –
9 | Cn1nc(-c2cscn2)cc1C(=O)N1C[C@@H]2[C@H](C1)[C@H]2Oc1cc(C(C)(C)N)cc(C2CCC(C)(C)CC2O)n1 (single isomer, unassigned; enantiomer 4) [Example 66D] | 10 to 100 nM | > 100 nM | –
10 | Cn1nc(-c2cscn2)cc1C(=O)N1C[C@@H]2[C@H](C1)[C@H]2Oc1cc(C(C)(N)C(N)=O)cc(-c2ccc(F)cc2)n1 (single isomer, unassigned; ent-2) [Example 49A] | – | – | EC50 (RSV-A2-GFP virus; [5]): < 10 nM; EC50 (hMPV-GFP virus; [6]): > 100 nM
11 | Cn1nc(-c2cscn2)cc1C(=O)N1C[C@@H]2[C@H](C1)[C@H]2Oc1cc(C(C)(N)C(N)=O)cc(-c2ccc(F)cc2)n1 (single isomer, unassigned; ent-2) [Example 49B] | < 10 nM | > 100 nM | –
12 | Cn1nc(-c2cscn2)cc1C(=O)N1C[C@@H]2[C@H](C1)[C@H]2Oc1cc(C2(C)CNC2=O)cc(-c2ccc(F)cc2)n1 (single isomer, unassigned; ent-3) [Example 50A] | – | – | EC50 (RSV-A2-GFP virus; [5]): < 10 nM; EC50 (hMPV-GFP virus; [6]): > 100 nM
13 | Cn1nc(-c2cscn2)cc1C(=O)N1C[C@@H]2[C@H](C1)[C@H]2Oc1cc(C2(C)CNC2=O)cc(-c2ccc(F)cc2)n1 (single isomer, unassigned; ent-3) [Example 50B] | < 10 nM | > 100 nM | –
14 | Cn1nc(-c2cscn2)cc1C(=O)N1C[C@@H]2[C@H](C1)[C@H]2Oc1cc(C2(C)CCNC2=O)cc(-c2ccc(F)cc2)n1 (single isomer, unassigned; ent-3) [Example 51A] | – | – | EC50 (RSV-A2-GFP virus; [5]): < 10 nM; EC50 (hMPV-GFP virus; [6]): > 100 nM
15 | Cn1nc(-c2cscn2)cc1C(=O)N1C[C@@H]2[C@H](C1)[C@H]2Oc1cc(C2(C)CCNC2=O)cc(-c2ccc(F)cc2)n1 (single isomer, unassigned; ent-3) [Example 51B] | < 10 nM | > 100 nM | –
16 | Cc1nc(-c2ncco2)sc1C(=O)N1C[C@@H]2[C@H](C1)[C@H]2Oc1cc(C(C)(C)N)cc(-c2ccc(F)cc2)n1 [Example 3, ((1R,5S,6s)-6-((4-(2-aminopropan-2-yl)-6-(4-fluorophenyl)pyridin-2-yl)oxy)-3-azabicyclo[3.1.0]hexan-3-yl)(4-methyl-2-(oxazol-2-yl)thiazol-5-yl)methanone] | – | – | EC50 (RSV-A2-GFP virus; [5]): < 10 nM; EC50 (hMPV-GFP virus; [6]): 10 to 100 nM
17 | Cc1cnc(-c2nc(C)c(C(=O)N3C[C@@H]4[C@H](C3)[C@H]4Oc3cc(C(C)(C)N)cc(-c4ccc(F)cc4)n3)s2)o1 [Example 4, ((1R,5S,6s)-6-((4-(2-aminopropan-2-yl)-6-(4-fluorophenyl)pyridin-2-yl)oxy)-3-azabicyclo[3.1.0]hexan-3-yl)(4-methyl-2-(5-methyloxazol-2-yl)thiazol-5-yl)methanone] | – | – | EC50 (RSV-A2-GFP virus; [3]): < 10 nM; EC50 (hMPV-GFP virus; [4]): 10 to 100 nM
